# Laboratory results reported in publication PMC5218480 (PLoS ONE, 2017).
# Tested on: MV-4-11 cells
# Test: Gene expression microarray analysis (Affymetrix PrimeView) and GSEA
# Assay type: cell-based, human
# Set-up: RFU PODN (11730768_x_at) / Fold change /veh PODN (11730768_x_at) / RFU LINC00158 (11744669_a_at) / Fold change /veh LINC00158 (11744669_a_at) / RFU DUSP10 (11751237_a_at) / Fold change /veh DUSP10 (11751237_a_at) / RFU ID3 (11757404_x_at) / Fold change /veh ID3 (11757404_x_at) / RFU PLEKHG5 (11737974_s_at) / Fold change /veh PLEKHG5 (11737974_s_at) / RFU LRRC4B (11730491_at) / Fold change /veh LRRC4B (11730491_at) / RFU GIMAP4 (11747438_a_at) / Fold change /veh GIMAP4 (11747438_a_at) / RFU KRT8 (11758183_x_at) / Fold change /veh KRT8 (11758183_x_at) / RFU CNN1 (11734310_a_at) / Fold change /veh CNN1 (11734310_a_at) / RFU VPS37D (11726825_at) / Fold change /veh VPS37D (11726825_at) / RFU C10orf10 (11716522_x_at) / Fold change /veh C10orf10 (11716522_x_at) / RFU KIR2DL2 /// KIR2DL4 /// KIR2DL5A /// KIR2DL5B /// KIR2DS1 /// KIR2DS2 /// KIR2DS3 /// KIR2DS4 /// KIR3DL3 /// KIR3DL3 /// KIR3DS1 (11738374_at) / Fold change /veh KIR2DL2 /// KIR2DL4 /// KIR2DL5A /// KIR2DL5B /// KIR2DS1 /// KIR2DS2 /// KIR2DS3 /// KIR2DS4 /// KIR3DL3 /// KIR3DL3 /// KIR3DS1 (11738374_at) / RFU C1QL1 (11718748_at) / Fold change /veh C1QL1 (11718748_at) / RFU TMPRSS4 (11747572_a_at) / Fold change /veh TMPRSS4 (11747572_a_at) / RFU HAMP (11756126_x_at) / Fold change /veh HAMP (11756126_x_at) / RFU RNFT2 (11725882_a_at) / Fold change /veh RNFT2 (11725882_a_at) / RFU NR4A2 (11747474_a_at) / Fold change /veh NR4A2 (11747474_a_at) / RFU ABCC12 (11746883_a_at) / Fold change /veh ABCC12 (11746883_a_at) / RFU TMEM136 (11760407_x_at) / Fold change /veh TMEM136 (11760407_x_at) / RFU CLDN22 /// WWC2 (11732394_at) / Fold change /veh CLDN22 /// WWC2 (11732394_at) / RFU HLA-DPB1 (11760878_x_at) / Fold change /veh HLA-DPB1 (11760878_x_at) / RFU SPINT1 (11716480_a_at) / Fold change /veh SPINT1 (11716480_a_at) / RFU GAP43 (11754022_s_at) / Fold change /veh GAP43 (11754022_s_at) / RFU A4GNT (11735810_at) / Fold change /veh A4GNT (11735810_at) / RFU PRB3 (11715151_x_at) / Fold change /veh PRB3 (11715151_x_at) / RFU TUBB4B (11761932_at) / Fold change /veh TUBB4B (11761932_at) / RFU CAPN14 (11732068_a_at) / Fold change /veh CAPN14 (11732068_a_at) / RFU TMCC2 (11721928_a_at) / Fold change /veh TMCC2 (11721928_a_at) / RFU IRGQ (11745062_a_at) / Fold change /veh IRGQ (11745062_a_at) / RFU FAM174B (11720279_a_at) / Fold change /veh FAM174B (11720279_a_at) / RFU TMPRSS4 (11748680_a_at) / Fold change /veh TMPRSS4 (11748680_a_at) / RFU FAM212B (11763350_a_at) / Fold change /veh FAM212B (11763350_a_at) / RFU PLEKHG5 (11743358_a_at) / Fold change /veh PLEKHG5 (11743358_a_at) / RFU ZSCAN30 (11745921_a_at) / Fold change /veh ZSCAN30 (11745921_a_at) / RFU CMKLR1 (11741424_a_at) / Fold change /veh CMKLR1 (11741424_a_at) / RFU LOC101060620 /// MAPK8IP1 (11723275_at) / Fold change /veh LOC101060620 /// MAPK8IP1 (11723275_at) / RFU SPTSSB (11747773_x_at) / Fold change /veh SPTSSB (11747773_x_at) / RFU PRSS12 (11739890_at) / Fold change /veh PRSS12 (11739890_at) / RFU BIN1 (11741810_x_at) / Fold change /veh BIN1 (11741810_x_at) / RFU WNT11 (11732464_a_at) / Fold change /veh WNT11 (11732464_a_at) / RFU C10orf10 (11716521_a_at) / Fold change /veh C10orf10 (11716521_a_at) / RFU C5orf56 (11738089_at) / Fold change /veh C5orf56 (11738089_at) / RFU CYB561 (11721691_x_at) / Fold change /veh CYB561 (11721691_x_at) / RFU ANKRD19P (11752326_a_at) / Fold change /veh ANKRD19P (11752326_a_at) / RFU OR2T12 /// OR2T33 /// OR2T8 (11738714_s_at) / Fold change /veh OR2T12 /// OR2T33 /// OR2T8 (11738714_s_at) / RFU VCAN (11748164_a_at) / Fold change /veh VCAN (11748164_a_at) / RFU JSRP1 (11732532_at) / Fold change /veh JSRP1 (11732532_at) / RFU KRTAP10-11 (11738290_x_at) / Fold change /veh KRTAP10-11 (11738290_x_at) / RFU MYO3A (11730013_a_at) / Fold change /veh MYO3A (11730013_a_at) / RFU EBF3 (11725865_a_at) / Fold change /veh EBF3 (11725865_a_at) / RFU CAMK2N1 (11719241_x_at) / Fold change /veh CAMK2N1 (11719241_x_at) / RFU C5orf56 (11738088_a_at) / Fold change /veh C5orf56 (11738088_a_at) / RFU OLFML3 (11715873_a_at) / Fold change /veh OLFML3 (11715873_a_at) / RFU LOC100653217 /// NTM (11731650_a_at) / Fold change /veh LOC100653217 /// NTM (11731650_a_at) / RFU MAPK11 (11762145_a_at) / Fold change /veh MAPK11 (11762145_a_at) / RFU FIZ1 (11724087_x_at) / Fold change /veh FIZ1 (11724087_x_at) / RFU OASL (11726364_x_at) / Fold change /veh OASL (11726364_x_at) / RFU SOX15 (11748057_x_at) / Fold change /veh SOX15 (11748057_x_at) / RFU CD79A (11719716_a_at) / Fold change /veh CD79A (11719716_a_at) / RFU HIST1H1D (11736915_at) / Fold change /veh HIST1H1D (11736915_at) / RFU CASKIN2 (11723855_a_at) / Fold change /veh CASKIN2 (11723855_a_at) / RFU LOC730098 (11760151_x_at) / Fold change /veh LOC730098 (11760151_x_at) / RFU OR4N2 (11742367_at) / Fold change /veh OR4N2 (11742367_at) / RFU PRRT2 (11749266_a_at) / Fold change /veh PRRT2 (11749266_a_at) / RFU SNX32 (11753110_a_at) / Fold change /veh SNX32 (11753110_a_at) / RFU CDHR5 (11726645_a_at) / Fold change /veh CDHR5 (11726645_a_at) / RFU RCAN1 (11760418_a_at) / Fold change /veh RCAN1 (11760418_a_at) / RFU FAM167A (11723789_a_at) / Fold change /veh FAM167A (11723789_a_at) / RFU FAM26E (11764081_at) / Fold change /veh FAM26E (11764081_at) / RFU ISYNA1 (11749810_s_at) / Fold change /veh ISYNA1 (11749810_s_at) / RFU ACY1 (11761880_at) / Fold change /veh ACY1 (11761880_at) / RFU 11764098_at / Fold change /veh 11764098_at / RFU SAMD14 (11745864_x_at) / Fold change /veh SAMD14 (11745864_x_at) / RFU NPB (11741838_a_at) / Fold change /veh NPB (11741838_a_at) / RFU TMPRSS6 (11731388_a_at) / Fold change /veh TMPRSS6 (11731388_a_at) / RFU KRTAP10-2 (11738614_at) / Fold change /veh KRTAP10-2 (11738614_at) / RFU ARHGAP8 /// PRR5-ARHGAP8 (11727945_x_at) / Fold change /veh ARHGAP8 /// PRR5-ARHGAP8 (11727945_x_at) / RFU KRTAP5-7 /// NADSYN1 (11734609_at) / Fold change /veh KRTAP5-7 /// NADSYN1 (11734609_at) / RFU RASL12 (11751679_a_at) / Fold change /veh RASL12 (11751679_a_at) / RFU CDKN2B (11736163_a_at) / Fold change /veh CDKN2B (11736163_a_at) / RFU PRF1 (11729649_at) / Fold change /veh PRF1 (11729649_at) / RFU, ZNF638 /// ZNF638-IT1 / Fold change vs veh, ZNF638 /// ZNF638-IT1 / RFU, PANK3 / Fold change vs veh, PANK3 / RFU, SH3YL1 / Fold change vs veh, SH3YL1 / RFU, ZEB2 / Fold change vs veh, ZEB2 / RFU, NRIP1 / Fold change vs veh, NRIP1 / RFU, PTTG1IP / Fold change vs veh, PTTG1IP / RFU, CAPN2 / Fold change vs veh, CAPN2 / RFU, MED14 / Fold change vs veh, MED14 / RFU, SNORA58 / Fold change vs veh, SNORA58 / RFU, C1orf63 / Fold change vs veh, C1orf63 / RFU, LRRFIP1 / Fold change vs veh, LRRFIP1 / RFU, NDUFAF7 / Fold change vs veh, NDUFAF7 / RFU, SLC12A2 / Fold change vs veh, SLC12A2 / RFU, IBTK / Fold change vs veh, IBTK / RFU, ESF1 / Fold change vs veh, ESF1 / Fold change vs veh, TMEM50B / RFU, TAOK1 / Fold change vs veh, TAOK1 / RFU, ACBD3 / Fold change vs veh, ACBD3 / RFU, TMA16 / Fold change vs veh, TMA16 / RFU, RWDD3 / Fold change vs veh, RWDD3 / RFU, BCAT1 / Fold change vs veh, BCAT1 / RFU, EDEM3 / Fold change vs veh, EDEM3 / RFU, TMEM33 / Fold change vs veh, TMEM33 / RFU, WDR75 / Fold change vs veh, WDR75 / RFU, AHCTF1 / Fold change vs veh, AHCTF1 / RFU, TFRC / Fold change vs veh, TFRC / RFU, ZDHHC17 / Fold change vs veh, ZDHHC17 / RFU, NOM1 / Fold change vs veh, NOM1 / RFU, ARL8B / Fold change vs veh, ARL8B / RFU, ZBTB11 / Fold change vs veh, ZBTB11 / RFU, TAMM41 / Fold change vs veh, TAMM41 / RFU, KIAA1704 /// LOC100996395 / Fold change vs veh, KIAA1704 /// LOC100996395 / RFU, ING1 / Fold change vs veh, ING1 / RFU, TRMT61B / Fold change vs veh, TRMT61B / RFU, FUBP3 / Fold change vs veh, FUBP3 / RFU, TP53 / Fold change vs veh, TP53 / RFU, TNKS2 / Fold change vs veh, TNKS2 / RFU, ZFP14 / Fold change vs veh, ZFP14 / RFU, ACTR2 / Fold change vs veh, ACTR2 / RFU, PPP3R1 / Fold change vs veh, PPP3R1 / RFU, PIK3R1 / Fold change vs veh, PIK3R1 / RFU, HNRNPA1 / Fold change vs veh, HNRNPA1 / RFU, RNF170 / Fold change vs veh, RNF170 / RFU, ZNF28 / Fold change vs veh, ZNF28 / RFU, RNGTT / Fold change vs veh, RNGTT / RFU, OGT / Fold change vs veh, OGT / RFU, BRD1 / Fold change vs veh, BRD1 / RFU, MARS / Fold change vs veh, MARS / RFU, ZNF655 / Fold change vs veh, ZNF655 / RFU, FAHD1 / Fold change vs veh, FAHD1 / RFU, BDP1 / Fold change vs veh, BDP1 / RFU, LRRCC1 / Fold change vs veh, LRRCC1 / RFU, ARID1A / Fold change vs veh, ARID1A / RFU, ZNF146 / Fold change vs veh, ZNF146 / RFU, ZNF330 / Fold change vs veh, ZNF330 / RFU, GPN3 / Fold change vs veh, GPN3 / RFU, C9orf123 / Fold change vs veh, C9orf123 / RFU, N4BP2L2 / Fold change vs veh, N4BP2L2 / RFU, ARFIP1 / Fold change vs veh, ARFIP1 / RFU, FAM179B / Fold change vs veh, FAM179B / RFU, BCL10 / Fold change vs veh, BCL10 / RFU, UHRF1BP1L / Fold change vs veh, UHRF1BP1L / RFU, BET1 / Fold change vs veh, BET1 / RFU, CNOT2 / Fold change vs veh, CNOT2 / RFU, ZNF268 / Fold change vs veh, ZNF268 / Fold change vs veh, ZNF507 / RFU, DGCR2 / Fold change vs veh, DGCR2 / RFU, WDSUB1 / Fold change vs veh, WDSUB1 / Fold change vs veh, HSP90B1 /// MIR3652 / RFU, ADSS / Fold change vs veh, ADSS / RFU, GK / Fold change vs veh, GK / RFU, ZNF148 / Fold change vs veh, ZNF148 / RFU, TAF9 / Fold change vs veh, TAF9 / RFU, SLC1A5 / Fold change vs veh, SLC1A5 / RFU, SLMO2 / Fold change vs veh, SLMO2 / RFU, ABCC4 / Fold change vs veh, ABCC4 / RFU, LOC101060439 /// RAP1B / Fold change vs veh, LOC101060439 /// RAP1B / RFU, RFX7 / Fold change vs veh, RFX7 / RFU, GTPBP10 / Fold change vs veh, GTPBP10 / RFU, CNEP1R1 / Fold change vs veh, CNEP1R1 / RFU, BIVM-ERCC5 /// ERCC5 / Fold change vs veh, BIVM-ERCC5 /// ERCC5 / RFU, ILF3 / Fold change vs veh, ILF3 / RFU 11762660_at / Fold change /veh 11762660_at / RFU VCAN (11757783_s_at) / Fold change /veh VCAN (11757783_s_at) / RFU DDX43 (11728927_at) / Fold change /veh DDX43 (11728927_at) / RFU KRT8 (11758188_x_at) / Fold change /veh KRT8 (11758188_x_at) / RFU NKD1 (11759106_at) / Fold change /veh NKD1 (11759106_at) / RFU SRD5A1 (11742802_a_at) / Fold change /veh SRD5A1 (11742802_a_at) / RFU TPSAB1 /// TPSB2 (11721975_s_at) / Fold change /veh TPSAB1 /// TPSB2 (11721975_s_at) / RFU GSTM3 (11746129_a_at) / Fold change /veh GSTM3 (11746129_a_at) / RFU IL23R (11737362_x_at) / Fold change /veh IL23R (11737362_x_at) / RFU TMEM51 (11727254_a_at) / Fold change /veh TMEM51 (11727254_a_at) / RFU PIWIL2 (11732686_x_at) / Fold change /veh PIWIL2 (11732686_x_at) / RFU ORM1 (11744905_x_at) / Fold change /veh ORM1 (11744905_x_at) / RFU CCDC152 (11743942_at) / Fold change /veh CCDC152 (11743942_at) / RFU ECM1 (11717891_a_at) / Fold change /veh ECM1 (11717891_a_at) / RFU IL23R (11748794_a_at) / Fold change /veh IL23R (11748794_a_at) / RFU TNFAIP8L3 (11732012_x_at) / Fold change /veh TNFAIP8L3 (11732012_x_at) / RFU MBOAT4 (11741988_at) / Fold change /veh MBOAT4 (11741988_at) / RFU 11764193_at / Fold change /veh 11764193_at / RFU TMEM53 (11763286_at) / Fold change /veh TMEM53 (11763286_at) / RFU MAGEB2 (11727129_at) / Fold change /veh MAGEB2 (11727129_at) / RFU TMEM200A (11744735_a_at) / Fold change /veh TMEM200A (11744735_a_at) / RFU CCDC152 (11751479_a_at) / Fold change /veh CCDC152 (11751479_a_at) / RFU FAM211A (11726209_a_at) / Fold change /veh FAM211A (11726209_a_at) / RFU RGS16 (11746705_a_at) / Fold change /veh RGS16 (11746705_a_at) / RFU VCAN (11755009_s_at) / Fold change /veh VCAN (11755009_s_at) / RFU RHOB (11743442_s_at) / Fold change /veh RHOB (11743442_s_at) / RFU RGS16 (11720943_a_at) / Fold change /veh RGS16 (11720943_a_at) / RFU RGS16 (11720944_at) / Fold change /veh RGS16 (11720944_at) / RFU, VPS4B / Fold change vs veh, VPS4B / RFU, CREB1 / Fold change vs veh, CREB1 / RFU, DNAJC13 / Fold change vs veh, DNAJC13 / RFU, GNAQ / Fold change vs veh, GNAQ / RFU, CDK5R1 / Fold change vs veh, CDK5R1 / RFU, ZRANB3 / Fold change vs veh, ZRANB3 / RFU, CUL4A / Fold change vs veh, CUL4A / RFU, CCNY / Fold change vs veh, CCNY / RFU, UFL1 / Fold change vs veh, UFL1 / RFU, COG3 / Fold change vs veh, COG3 / RFU, DIAPH2 / Fold change vs veh, DIAPH2 / RFU, SKA2 / Fold change vs veh, SKA2 / RFU, AFF3 / Fold change vs veh, AFF3 / RFU, LMF1 / Fold change vs veh, LMF1 / RFU, IPO11 / Fold change vs veh, IPO11 / RFU, DFFB / Fold change vs veh, DFFB / RFU, FOXP1 / Fold change vs veh, FOXP1 / RFU, CARD8 / Fold change vs veh, CARD8 / RFU, STRN3 / Fold change vs veh, STRN3 / RFU, ADK / Fold change vs veh, ADK / RFU, RASSF2 / Fold change vs veh, RASSF2 / RFU, WIPF1 / Fold change vs veh, WIPF1 / RFU, LARP1B / Fold change vs veh, LARP1B / RFU, RASA1 / Fold change vs veh, RASA1 / RFU, RB1 / Fold change vs veh, RB1 / RFU, PPFIA1 / Fold change vs veh, PPFIA1 / RFU, MAT2A / Fold change vs veh, MAT2A / RFU, CCT5 / Fold change vs veh, CCT5 / RFU, WDR92 / Fold change vs veh, WDR92 / RFU, CUX1 / Fold change vs veh, CUX1 / RFU, TTC7A / Fold change vs veh, TTC7A / RFU, TMEM135 / Fold change vs veh, TMEM135 / RFU, DEPTOR / Fold change vs veh, DEPTOR / RFU, CPM / Fold change vs veh, CPM / RFU, DNAJB6 / Fold change vs veh, DNAJB6 / RFU, CACNA2D3 / Fold change vs veh, CACNA2D3 / RFU, DTX4 / Fold change vs veh, DTX4 / RFU, TFCP2 / Fold change vs veh, TFCP2 / RFU, GMCL1 /// GMCL1P1 / Fold change vs veh, GMCL1 /// GMCL1P1 / RFU, AEBP2 / Fold change vs veh, AEBP2 / RFU, SNHG1 /// SNORD22 /// SNORD25 /// SNORD26 /// SNORD27 /// SNORD28 /// SNORD29 /// SNORD31 / Fold change vs veh, SNHG1 /// SNORD22 /// SNORD25 /// SNORD26 /// SNORD27 /// SNORD28 /// SNORD29 /// SNORD31 / Fold change (Aza/veh), C12orf56 (ProbeSet 11735607_a_at) / Fold change (ACY-1035/veh), C12orf56 (ProbeSet 11735607_a_at) / Fold change (Aza/veh), FGFR1OP (ProbeSet 11751329_s_at) / Fold change (ACY-1035/veh), FGFR1OP (ProbeSet 11751329_s_at) / Fold change (Aza/veh), VPS36 (ProbeSet 11739960_a_at) / Fold change (ACY-1035/veh), VPS36 (ProbeSet 11739960_a_at) / RFU SYPL1 (11715823_x_at) / Fold change /veh SYPL1 (11715823_x_at) / RFU IGFBP7 (11715501_s_at) / Fold change /veh IGFBP7 (11715501_s_at) / RFU REEP3 (11722064_at) / Fold change /veh REEP3 (11722064_at) / RFU IGLL1 (11728026_x_at) / Fold change /veh IGLL1 (11728026_x_at): dose or concentration left out as unconfirmed
# Settings: MV-4-11 cells, 48 hours
structure (smiles),measurement,value
Nc1ccc(-c2cccs2)cc1NC(=O)c1ccc2c(c1)cc(C1CC1)n2CCN1CCOCC1 [ACY-1035],Fold change /veh RGS16 (11746705_a_at),1.06
